Experimental findings from patent US10287305B2, “Substituted piperidine compound and use thereof” (Takeda Pharmaceutical Company Limited, priority 2016, dated 2019) are described below.

In test [1] the target is human OX2 receptor (Homo sapiens (Human), UniProt O43614). The experiment in a line: Measurement of orexin type 2 receptor agonist activity (Experimental Example 2-2, FDSS uCELL, calcium indicator). It is filed as cell-based. The note with it: CHO cells expressing human OX2 receptor; for Emax: DMSO = 0%, reference OX-A at 10 nM; for EC50: Fluo-4 AM. As for the experimental part:
CHO cells forcibly expressing human OX2 receptor were seeded in each well of 384 well black transparent bottom plate (BD Falcon) at 7,500 cells/well, and cultured for one day in a 5% CO2 incubator at 37° C. […] The plate was stood for 30 min in a 5% CO2 incubator at 37° C., and further stood at room temperature for 30 min. A test compound prepared by diluting with assay buffer B (HESS, 20 mM HEPES, 0.1% BSA) was added at 10 μL/well, and the fluorescence value was measured by FDSSμCELL (Hamamatsu Photonics K.K.) every one sec for 1 min, and thereafter every two sec for 1 min sec.

The target of test [2] is human orexin type 2 receptor (hOX2R) (Homo sapiens (Human), UniProt O43614). Nature of the test: Measurement of orexin type 2 receptor agonist activity (Experimental Example 2-1, FLIPR TETRA, intracellular Ca2+). The test is classed as cell-based. Conditions: CHO dhfr- cells expressing hOX2R; for Emax: read-out: Emax (%); for Emax at 30 µM: value at 30 uM concentration, orexin B as full agonist = 100%.
human orexin type 2 receptor (hOX2R), sequence (O43614 whole entry): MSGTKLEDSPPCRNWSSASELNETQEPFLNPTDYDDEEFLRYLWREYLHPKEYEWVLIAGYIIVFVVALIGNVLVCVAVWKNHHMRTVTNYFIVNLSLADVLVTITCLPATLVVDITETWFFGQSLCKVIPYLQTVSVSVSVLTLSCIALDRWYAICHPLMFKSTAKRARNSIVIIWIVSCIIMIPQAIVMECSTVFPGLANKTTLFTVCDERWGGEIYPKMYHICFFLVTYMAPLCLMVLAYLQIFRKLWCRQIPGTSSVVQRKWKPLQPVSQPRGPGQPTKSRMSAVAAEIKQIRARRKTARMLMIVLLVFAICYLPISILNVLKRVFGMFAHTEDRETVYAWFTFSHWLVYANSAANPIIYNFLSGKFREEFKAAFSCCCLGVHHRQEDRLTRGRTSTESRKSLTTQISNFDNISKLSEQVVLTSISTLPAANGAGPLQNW

[3] abbreviates: agonist activity, 10 nM human orexin B = 100%.

human OX2 receptor, sequence (O43614 whole entry): as above

For the molecule `COC(=O)N1CCC[C@H](NS(C)(=O)=O)[C@@H]1CO[C@H]1CC[C@@H](c2cccc(O)c2)CC1` (relative stereo) [Example 343, methyl cis-2-(((cis-4-(3-hydroxyphenyl)cyclohexyl)oxy)-methyl)-3-((methylsulfonyl)amino)piperidine-1-carboxylate], in test [1], the Emax was determined as 109% and the EC50 worked out at 150 nM.
As for `COC(=O)N1CCC[C@H](NS(C)(=O)=O)[C@@H]1CO[C@H]1CC[C@@H](c2ccc(OC)cc2)CC1` (relative stereo) [Example 344, methyl cis-2-(((cis-4-(4-methoxyphenyl)cyclohexyl)oxy)-methyl)-3-((methylsulfonyl)amino)piperidine-1-carboxylate], in test [1], the EC50 stood at 290 nM. For the same molecule, in test [1] (CHO), the Emax is 109%.
The matching figures for `CNC(=O)N1CCC[C@H](NS(=O)(=O)C2CC2)[C@@H]1CO[C@H]1CC[C@@H](c2ccccc2)CC1` (relative stereo) [Example 359, cis-3-((cyclopropylsulfonyl)amino)-N-methyl-2-(((cis-4-phenylcyclohexyl)oxy)methyl)-piperidine-1-carboxamide]: 1.1 nM and 97%.
The matching figures for `O=S(=O)(N[C@H]1CCCN[C@H]1CO[C@H]1CC[C@@H](c2ccccc2)CC1)C1CC1` (relative stereo) [Example 353, N-(cis-2-(((cis-4-phenylcyclohexyl)oxy)methyl)-piperidin-3-yl)cyclopropanesulfonamide]: 1300 nM and 100%.
As for `COC(=O)N1CCC[C@H](NS(C)(=O)=O)[C@@H]1CO[C@H]1CC[C@@H](c2ccc(O)cc2)CC1` (relative stereo) [Example 345, methyl cis-2-(((cis-4-(4-hydroxyphenyl)cyclohexyl)oxy)-methyl)-3-((methylsulfonyl)amino)piperidine-1-carboxylate], the EC50 in test [1] is 21 nM. Further, the Emax in test [1] (CHO) amounted to 105%.
Regarding `CC(=O)N1CCC[C@H](NS(=O)(=O)C2CC2)[C@@H]1CO[C@H]1CC[C@@H](C(C)C)CC1` (relative stereo) [Example 357, N-(cis-1-acetyl-2-(((cis-4-isopropylcyclohexyl)oxy)methyl)-piperidin-3-yl)cyclopropanesulfonamide], in test [1], the EC50 amounted to 84 nM. The Emax in test [1] (CHO) was 101%.
Take `CCNC(=O)N1CCC[C@H](NS(C)(=O)=O)[C@@H]1CO[C@H]1CCC[C@@H]1Oc1ccccc1` [Example 350, cis-N-ethyl-3-((methylsulfonyl)amino)-2-((((1S,2S)-2-phenoxycyclopentyl)oxy)methyl)-piperidine-1-carboxamide]: in test [1], the EC50 worked out at 1600 nM. For the same molecule, the Emax in test [1] (CHO) amounted to 116%.
As for `CCNC(=O)N1CCC[C@H](NS(=O)(=O)C2CC2)[C@@H]1CO[C@H]1CC[C@@H](c2ccccc2)CC1` (relative stereo) [Example 355, cis-3-((cyclopropylsulfonyl)amino)-N-ethyl-2-(((cis-4-phenylcyclohexyl)oxy)methyl)-piperidine-1-carboxamide], the concentration for a half-maximal effect (EC50) in test [1] came out at 0.44 nM. Also, the Emax in test [1] (CHO) came out at 108%.
The matching figures for `O=C(OCC(F)(F)F)N1CCC[C@H](NS(=O)(=O)C2CC2)[C@@H]1COC1CCN(c2ncccn2)CC1` (relative stereo) [Example 360, 2,2,2-trifluoroethyl cis-3-((cyclopropylsulfonyl)amino)-2-(((1-(pyrimidin-2-yl)piperidin-4-yl)oxy)methyl)piperidine-1-carboxylate]: 210 nM and 98%.
As for `CC(=O)N1CCC[C@H](NS(=O)(=O)C2CC2)[C@@H]1CO[C@H]1CC[C@@H](c2ccccc2)CC1` (relative stereo) [Example 354, N-(cis-1-acetyl-2-(((cis-4-phenylcyclohexyl)oxy)methyl)-piperidin-3-yl)cyclopropanesulfonamide], the EC50 in test [1] came to 51 nM. In addition, the Emax in test [1] (CHO) came to 104%.
With `CC(C)OC(=O)N1CCC[C@H](NS(=O)(=O)C2CC2)[C@@H]1COC1CCN(c2ncccn2)CC1` (relative stereo) [Example 356, isopropyl cis-3-((cyclopropylsulfonyl)amino)-2-(((1-(pyrimidin-2-yl)piperidin-4-yl)oxy)methyl)piperidine-1-carboxylate], the EC50 in test [1] came to 21 nM. Besides, in test [1] (CHO), the Emax was 98%.
In the case of `CS(=O)(=O)N[C@H]1CCCN(C(=O)CO)[C@H]1CO[C@H]1CC[C@@H](c2ccccc2C(F)(F)F)CC1` [Example 283, N-((2R,3S)-1-glycoloyl-2-(((cis-4-(2-(trifluoromethyl)phenyl)cyclohexyl)oxy)methyl)piperidin-3-yl)methanesulfonamide], in test [2] (FLIPR TETRA, Fluo-4AM), the EC50 came to 8.9 nM and the maximal effect (Emax) is 95%.
Consider `CCNC(=O)N1CCC[C@H](NS(C)(=O)=O)[C@@H]1CO[C@H]1CC[C@@H](c2cccc(F)c2)CC1` [Example 148, (2R,3S)-N-ethyl-2-(((cis-4-(3-fluorophenyl)cyclohexyl)oxy)methyl)-3-((methylsulfonyl)amino)piperidine-1-carboxamide], for which, in test [2] (FLIPR TETRA, Fluo-4AM), the EC50 is 0.053 nM and the Emax was 103%.
The matching figures for `COC(=O)N1CCC[C@H](NS(C)(=O)=O)[C@@H]1COC1CCC(c2ccccc2)C1` (relative stereo) [Example 338, methyl cis-3-((methylsulfonyl)amino)-2-(((3-phenylcyclopentyl)oxy)methyl)-piperidine-1-carboxylate]: 490 nM and 83%.
In the case of `COC(=O)N1CCC[C@H](NS(C)(=O)=O)[C@@H]1CO[C@H]1CC[C@@H](c2cc(F)cc(F)c2)CC1` [Example 241, methyl (2R,3S)-2-(((cis-4-(3,5-difluorophenyl)cyclohexyl)oxy)methyl)-3-((methylsulfonyl)amino)piperidine-1-carboxylate], in test [2] (FLIPR TETRA, Fluo-4AM), the EC50 amounted to 1.2 nM and the Emax worked out at 97%.
Consider `CCNC(=O)N1CCC[C@H](NS(C)(=O)=O)[C@@H]1CO[C@H]1CC[C@@H](c2cccc(F)c2F)CC1` (relative stereo) [Example 136, cis-2-(((cis-4-(2,3-difluorophenyl)cyclohexyl)oxy)methyl)-N-ethyl-3-((methylsulfonyl)amino)piperidine-1-carboxamide], for which, in test [2] (FLIPR TETRA, Fluo-4AM), a half-maximal response (EC50) required 0.22 nM and the Emax worked out at 102%.
Consider `CS(=O)(=O)N[C@H]1CCCN(C(=O)C2CCC(F)(F)CC2)[C@H]1COC1CCN(c2ccccc2F)CC1` (relative stereo) [Example 238, N-(cis-1-((4,4-difluorocyclohexyl)carbonyl)-2-(((1-(2-fluorophenyl)piperidin-4-yl)oxy)methyl)piperidin-3-yl)methanesulfonamide], for which, in test [2] (FLIPR TETRA, Fluo-4AM), the EC50 amounted to 2100 nM and the Emax came out at 91%.
In the case of `CS(=O)(=O)N[C@H]1CCCN(C(=O)C2CC2)[C@H]1CO[C@H]1CC[C@@H](c2ccccc2OC(F)(F)F)CC1` (relative stereo) [Example 294, N-(cis-1-(cyclopropylcarbonyl)-2-(((cis-4-(2-(trifluoromethoxy)phenyl)cyclohexyl)oxy)methyl)piperidin-3-yl)methanesulfonamide], in test [2] (FLIPR TETRA, Fluo-4AM), a half-maximal response (EC50) required 130 nM and the Emax stood at 95%.
As for `CC(C)[C@H]1CC[C@@H](OC[C@H]2[C@@H](NS(C)(=O)=O)CCCN2C(=O)COc2ccn(C)n2)CC1` [Example 84, N-((2R,3S)-2-(((cis-4-isopropylcyclohexyl)oxy)methyl)-1-(((1-methyl-1H-pyrazol-3-yl)oxy)acetyl)piperidin-3-yl)methanesulfonamide], in test [2] (setting [3]), the EC50 came out at 840 nM. Besides, the Emax at 30 µM in test [2] turned out to be 98%.
In the case of `CS(=O)(=O)N[C@H]1CCCN(C(=O)CC#N)[C@H]1CO[C@H]1CC[C@@H](c2ccccc2)CC1` [Example 180, N-((2R,3S)-1-(cyanoacetyl)-2-(((cis-4-phenylcyclohexyl)oxy)methyl)piperidin-3-yl)methanesulfonamide], in test [2] (FLIPR TETRA, Fluo-4AM), a half-maximal response (EC50) required 17 nM and the Emax worked out at 106%.
In test [2] (setting [3]), `CC(=O)N1CCC[C@H](NS(C)(=O)=O)[C@@H]1CO[C@H]1CC[C@@H](c2c(F)cccc2F)CC1` [Example 14, N-((2R,3S)-1-acetyl-2-(((cis-4-(2,6-difluorophenyl)cyclohexyl)oxy)methyl)piperidin-3-yl)methanesulfonamide] yielded an EC50 of 6.6 nM. The Emax at 30 µM in test [2] came out at 105%.
In test [2] (setting [3]), `CC(C)[C@H]1CC[C@@H](OC[C@H]2[C@@H](NS(C)(=O)=O)CCCN2C(=O)C2CCOCC2)CC1` (relative stereo) [Example 60, N-(cis-2-(((cis-4-isopropylcyclohexyl)oxy)methyl)-1-(tetrahydro-2H-pyran-4-ylcarbonyl)piperidin-3-yl)methanesulfonamide] returned an EC50 of 140 nM. In addition, the Emax at 30 µM in test [2] was 101%.
On to `COC(=O)N1CCC[C@H](NS(C)(=O)=O)[C@@H]1CO[C@H]1CC[C@@H](c2c(F)cccc2F)CC1` [Example 215, methyl (2R,3S)-2-(((cis-4-(2,6-difluorophenyl)cyclohexyl)oxy)methyl)-3-((methylsulfonyl)amino)piperidine-1-carboxylate], for which, in test [2] (FLIPR TETRA, Fluo-4AM), the EC50 was determined as 2.5 nM and the Emax stood at 105%.
The matching figures for `CC(=O)N1CCC[C@H](NS(C)(=O)=O)[C@@H]1CO[C@H]1CC[C@@H](c2ccccc2C(F)F)CC1` [Example 323, N-((2R,3S)-1-acetyl-2-(((cis-4-(2-(difluoromethyl)phenyl)cyclohexyl)-oxy)methyl)piperidin-3-yl)methanesulfonamide]: 96 nM and 95%.

The Emax is the size of the effect at its maximum, as opposed to the concentration needed. For orientation: EC50 means the concentration that produces a half-maximal response.
